{"source": "patent US20050074834A1", "about": "(priority 2001, published 2005)", "key": {"melanophores": {"tested_on": "melanophores", "assay_type": "cell-based"}, "erythrophores": {"tested_on": "erythrophores", "assay_type": "cell-based"}, "chromatophores [1]": {"tested_on": "chromatophores"}, "chromatophores [2]": {"tested_on": "chromatophores", "experiment": "cells", "details": "read-out: Threshold concentration PPM"}, "[3]": {"tested_on": "Betta splendens erythrophores", "assay_type": "cell-based"}, "fish chromatophores": {"tested_on": "fish chromatophores", "assay_type": "cell-based"}, "iridophores": {"tested_on": "iridophores", "assay_type": "cell-based"}, "Betta chromatophores": {"tested_on": "Betta chromatophores", "assay_type": "cell-based"}}, "note": "Entries after “also recorded” stand apart in the source; their conditions may differ. No end group written: not given here."}
{"compound": "C[C@]12CCC(=O)C=C1CC[C@@H]1[C@@H]2[C@@H](O)C[C@@]2(C)[C@H]1CC[C@]2(O)C(=O)CO", "note": "[Hydrocortisone]", "values": [{"measurement": "Chromatophore response Melanophores", "setting": "melanophores", "value": "Hyp. D."}, {"measurement": "Chromatophore response Erythrophores", "setting": "erythrophores", "value": "HypD."}, {"measurement": "Response time Hr.", "setting": "chromatophores [1]", "value": "XX (key: X=1-6 hr; XX=6-24 hr)"}]}
{"compound": "OO", "note": "[Hydrogen peroxide]", "values": [{"measurement": "Chromatophore response (cell spans the chromatophore type columns)", "setting": "chromatophores [1]", "value": "Imp. (FS)"}, {"measurement": "minimal effective concentration", "setting": "chromatophores [2]", "value": "100 to 1000", "unit": "µg/mL"}]}
{"compound": "C[C@H](CCC(=O)O)C[C@H](C)C[C@H](C)C(=O)/C=C(\\O)[C@H](C)C[C@H](C)C/C=C/[C@@H](C)[C@@H](O)[C@@H](C)[C@@H](O)C[C@@H]1CC[C@@](C)([C@H]2CC[C@@](C)([C@@H](C)O)O2)O1", "note": "[Ionomycin]", "values": [{"measurement": "Morphology Effect: Aggregation", "setting": "[3]", "value": "Yes"}, {"measurement": "Morphology Effect: Dispersion", "setting": "[3]", "value": "No"}, {"measurement": "erythrophore pigment response on addition", "setting": "[3]", "value": "slight, but sustained aggregation"}]}
{"compound": "[Ni]", "note": "[Ni]", "values": [{"measurement": "Chromatophore response (cell spans the chromatophore type columns)", "setting": "chromatophores [1]", "value": "Imp. (FS)"}, {"measurement": "Threshold concentration PPT", "setting": "chromatophores [1]", "value": "X (key: X=1 PPT or higher)"}]}
{"compound": "O=S(=O)(F)Cc1ccccc1", "note": "[PMSF, phenylmethylsulfonyl fluoride]", "values": [{"measurement": "effect of PMSF on sensitivity to H89", "setting": "fish chromatophores", "value": "heightens the sensitivity of cells to H89; also recorded: increased sensitivity to H89 inhibition"}, {"measurement": "Chromatophore response (cell spans the chromatophore type columns)", "setting": "chromatophores [1]", "value": "Imp. (FS)"}, {"measurement": "Threshold concentration PPM", "setting": "chromatophores [1]", "value": "X (key: X=1 to 100 PPM; XX=100 to 1000 PPM)"}]}
{"compound": "[Pb]", "note": "[Pb]", "values": [{"measurement": "Chromatophore response (cell spans the chromatophore type columns)", "setting": "chromatophores [1]", "value": "Imp. (FS)"}, {"measurement": "Threshold concentration PPT", "setting": "chromatophores [1]", "value": "X (key: X=1 PPT or higher)"}]}
{"compound": "CN(C)CCC(c1ccccc1)c1ccccn1", "note": "(stereo not drawn) [Pheniramine]", "values": [{"measurement": "minimal effective concentration", "setting": "chromatophores [2]", "value": "100 to 1000", "unit": "µg/mL"}]}
{"compound": "CC(COc1ccccc1)N(CCCl)Cc1ccccc1", "note": "(stereo not drawn) [Phenoxy-benzamine]", "values": [{"measurement": "Chromatophore response (cell spans the chromatophore type columns)", "setting": "chromatophores [1]", "value": "Blocks norepinephrine"}]}
{"compound": "Cc1ccc(N(CC2=NCCN2)c2cccc(O)c2)cc1", "note": "[Phentolamine]", "values": [{"measurement": "Chromatophore response (cell spans the chromatophore type columns)", "setting": "chromatophores [1]", "value": "Blocks norepinephrine"}]}
{"compound": "CNCCNS(=O)(=O)c1cccc2cnccc12", "note": "[Protein kinase inhibitor H-8]", "values": [{"measurement": "Chromatophore response Melanophores", "setting": "melanophores", "value": "Disp."}, {"measurement": "Threshold concentration PPM", "setting": "chromatophores [1]", "value": "XX (key: X=1 to 100 PPM; XX=100 to 1000 PPM)"}]}
{"compound": "NCCNS(=O)(=O)c1cccc2cnccc12", "note": "[Protein kinase inhibitor H-9]", "values": [{"measurement": "Chromatophore response Melanophores", "setting": "melanophores", "value": "Disp."}, {"measurement": "Threshold concentration PPM", "setting": "chromatophores [1]", "value": "XX (key: X=1 to 100 PPM; XX=100 to 1000 PPM)"}]}
{"compound": "COC(=O)[C@@]1(O)C[C@H]2O[C@]1(C)n1c3ccccc3c3c4c(c5c6ccccc6n2c5c31)C(=O)NC4", "note": "[Protein kinase inhibitor K252a]", "values": [{"measurement": "minimal effective concentration", "setting": "chromatophores [2]", "value": "1 to 100", "unit": "µg/mL"}]}
{"compound": "c1cc2ccc3cccc4ccc(c1)c2c34", "note": "[Pyrene]", "values": [{"measurement": "minimal effective concentration", "setting": "chromatophores [2]", "value": "1 to 100", "unit": "µg/mL"}]}
{"compound": "O=C(O)c1ccccc1O", "note": "[Salicylate]", "values": [{"measurement": "Chromatophore response (cell spans the chromatophore type columns)", "setting": "chromatophores [1]", "value": "Imp. (FS)"}, {"measurement": "Threshold concentration PPM", "setting": "chromatophores [1]", "value": "XX (key: X=1 to 100 PPM; XX=100 to 1000 PPM)"}]}
{"compound": "NCCc1c[nH]c2ccc(O)cc12", "note": "[Serotonin]", "values": [{"measurement": "Chromatophore response (cell spans the chromatophore type columns)", "setting": "chromatophores [1]", "value": "Partial Aggr."}, {"measurement": "minimal effective concentration", "setting": "chromatophores [2]", "value": "1 to 100", "unit": "µg/mL"}]}
{"compound": "C/C=C(/C)C(=O)O[C@H]1C(C)=C2[C@H]([C@@H]1OC(=O)CCCCCCC)[C@@](C)(OC(C)=O)C[C@H](OC(=O)CCC)[C@@]1(O)[C@H]2OC(=O)[C@@]1(C)O", "note": "[Thapsigargin]", "values": [{"measurement": "Morphology Effect: Aggregation", "setting": "[3]", "value": "Yes"}, {"measurement": "Morphology Effect: Dispersion", "setting": "[3]", "value": "No"}]}
{"compound": "CCOC(=O)c1cccc(N)c1", "note": "[Tricaine]", "values": [{"measurement": "Chromatophore response Melanophores", "setting": "melanophores", "value": "Disp."}, {"measurement": "Threshold concentration PPM", "setting": "chromatophores [1]", "value": "X (key: X=1 to 100 PPM; XX=100 to 1000 PPM)"}]}
{"compound": "COP(=O)(OC)C(O)C(Cl)(Cl)Cl", "note": "(stereo not drawn) [Trichlorfon]", "values": [{"measurement": "Chromatophore response Erythrophores", "setting": "erythrophores", "value": "Imp. (FS)"}, {"measurement": "Chromatophore response Iridophores", "setting": "iridophores", "value": "Hue change (FS)"}, {"measurement": "Response time Hr.", "setting": "chromatophores [1]", "value": "X (key: X=1-6 hr; XX=6-24 hr)"}]}
{"compound": "COc1ccc(CCN(C)CCCC(C#N)(c2ccc(OC)c(OC)c2)C(C)C)cc1OC", "note": "(stereo not drawn) [Verapamil]", "values": [{"measurement": "Morphology Effect: Aggregation", "setting": "[3]", "value": "No"}, {"measurement": "Morphology Effect: Dispersion", "setting": "[3]", "value": "Yes"}, {"measurement": "erythrophore pigment dispersion response, control", "setting": "[3]", "value": "failed to induce pigment dispersion response"}, {"measurement": "erythrophore pigment response after norepinephrine pre-treatment", "setting": "[3]", "value": "produces pigment dispersion"}, {"measurement": "erythrophore response to verapamil", "setting": "[3]", "value": "rapid dispersion; also recorded: disperse almost as completely as possible; also recorded: pigment dispersion; also recorded: larger dispersion"}, {"measurement": "Threshold concentration PPB", "setting": "chromatophores [1]", "value": "X (key: X=1 to 100 PPB; XX=100 to 1000 PPB)"}]}
{"compound": "COC(=O)[C@@H]1[C@H]2C[C@H]3c4[nH]c5ccccc5c4CCN3C[C@@H]2CC[C@@H]1O", "note": "[Yohimbine]", "values": [{"measurement": "Chromatophore response (cell spans the chromatophore type columns)", "setting": "chromatophores [1]", "value": "Blocks norepinephrine"}]}
{"compound": "c1ccc(C2CC2)c(OCC2=NCCN2)c1", "note": "[cirazoline]", "values": [{"measurement": "chromatophore response after forskolin and PMSF", "setting": "fish chromatophores", "value": "no aggregation occurred"}, {"measurement": "chromatophore response in the absence of forskolin", "setting": "fish chromatophores", "value": "aggregate; also recorded: aggregation"}, {"measurement": "chromatophore response in the presence of forskolin", "setting": "fish chromatophores", "value": "unresponsive; also recorded: not detectable"}]}
{"compound": "MCH", "values": [{"measurement": "Chromatophore response Melanophores", "setting": "melanophores", "value": "Aggr."}, {"measurement": "Threshold concentration PPB", "setting": "chromatophores [1]", "value": "X (key: X=1 to 100 PPB; XX=100 to 1000 PPB)"}]}
{"compound": "Pertussis toxin: Bacterial toxin, Pertussis toxin", "values": [{"measurement": "Chromatophore response Melanophores", "setting": "melanophores", "value": "Imp."}, {"measurement": "selective sensitivity of color classes of chromatophores", "setting": "Betta chromatophores", "value": "melanophores to pertussis toxin"}, {"measurement": "Response time Hr.", "setting": "chromatophores [1]", "value": "X (key: X=1-6 hr; XX=6-24 hr)"}, {"measurement": "Threshold concentration PPM", "setting": "chromatophores [1]", "value": "X (key: X=1 to 100 PPM; XX=100 to 1000 PPM)"}]}
{"compound": "Substance P (RPKPQQFFGLM; ends and bridges not checked; UniProt P20366 58-68, looked up)", "values": [{"measurement": "Chromatophore response (cell spans the chromatophore type columns)", "setting": "chromatophores [1]", "value": "Hue changes (FS)"}]}
{"compound": "μ-Conotoxin GVIA", "values": [{"measurement": "Morphology Effect: Aggregation", "setting": "[3]", "value": "No"}, {"measurement": "Morphology Effect: Dispersion", "setting": "[3]", "value": "No"}]}
